Measurements reported in patent publication US20240269135A1, “METHODS OF TREATING BREAST CANCER” (ASTRAZENECA AB, priority 2021, published 2024).

What was measured:
[1] = tested on: patients with HER2-negative early breast cancer with BRCA1/2 germline pathogenic/likely pathogenic variants; assay: OlympiA randomized double-blind phase 3 trial: invasive-disease-free, distant-disease-free and overall survival (incl. subgroup and sensitivity analyses); type: in vivo
Text: We conducted a randomized double-blind phase 3 trial involving patients with HER2-negative early breast cancer with BRCA1/2 germline pathogenic/likely pathogenic variants (gBRCA-P/LP-variant), and high-risk clinico-pathological factors, after local treatment and (neo)adjuvant chemotherapy. […] The primary endpoint was invasive disease-free-survival.
The trial was designed and conducted as a collaborative partnership between the Breast International Group (BIG) and the sponsors NRG Oncology in the United States (US) and AstraZeneca (AZ) outside the US.
Patients eligible for the trial harbored a gBRCA-P/LP variant defined by local or central testing and high-risk, HER2-negative primary breast cancer following definitive local treatment and neoadjuvant or adjuvant chemotherapy. […] Details of gBRCA-P/LP variant screening, local and central gBRCA-P/LP variant testing, and concordance is provided in Figure S2 and Table S2/S3 in Supplementary Appendix. Any gBRCA-P/LP variant eligibility adjudication was conducted by the trial Genetics Advisory Committee. Local estrogen-receptor, progesterone-receptor and HER2 testing results were used for determination of the hormone-receptor status (cut-point for positive was ≥1%) for stratification and for hormone-receptor-positive specific stage criteria for eligibility (details for receptor status central review and concordance for all patients recruited outside China are provided in Supplementary Appendix Tables S4 and S5).
Patients were required to have completed all local therapy including radiotherapy, which interacts with PARP inhibition, at least 2 and not more than 12 weeks before study entry. Patients had completed at least 6 cycles of neoadjuvant or adjuvant chemotherapy containing anthracyclines, taxanes or both agents. Platinum chemotherapy was allowed. Adjuvant bisphosphonates and adjuvant endocrine therapy in patients with hormone-receptor positive disease were given according to institutional guidelines. No chemotherapy after surgery was allowed in patients who received neoadjuvant chemotherapy.
Patients were stratified by hormone-receptor status (positive versus negative), NACT versus ACT and use of platinum chemotherapy for current breast cancer (yes versus no).
Following randomization, medical history and physical examination were performed on a 4-weekly basis for 24 weeks and then 3-monthly through year 2, 6-monthly assessments in years 3 to 5 and annually thereafter. […] Patients had mammogram and/or breast magnetic-resonance-imaging annually.
After a first event, patients were followed for first distant relapse (if not the first event), CNS metastases, loco-regional relapses, contralateral breast cancer, second primary malignancies and survival status.
In accordance with the standardized definitions for efficacy end points (STEEP) system,^21 the primary endpoint of invasive disease-free survival was defined as the time from randomization until the date of first occurrence of one of the following events: ipsilateral invasive breast tumor, locoregional invasive disease, distant recurrence, contralateral invasive breast cancer, second primary invasive cancer or death from any cause. Patients without a documented invasive disease-free survival event were censored at the date they were last known to be disease-free.
Efficacy analyses were based on the intention-to-treat (ITT) population. Survival functions were estimated by Kaplan-Meier method. The stratified Cox proportional-hazards model was used to estimate the hazard ratio and confidence intervals, the comparison of survival between treatment arms was tested by stratified log-rank test. […] Safety was assessed in the population who received at least one dose of study medication.

[2] = OlympiA exposure to study treatment, dose intensity, dose reductions and treatment discontinuations; type: in vivo, human; details: safety analysis set; 300 mg bd, N = 911
Method: A total of 1815 patients (911 in the olaparib-group and 904 in the placebo-group) were included in the safety analysis. The median number of days at 300 mg twice-daily protocol dose was 338 with percentage of intended dose being 94.8% in the olaparib-group, and 358 days and 98.9% in the placebo-group (Tables S11 to S13 in the Supplementary Appendix). Early treatment discontinuations, including discontinuations due to recurrence, occurred in 236 (25.9%) of the olaparib-group and 187 (20.7%) of the placebo-group (Figure S4 in the Supplementary Appendix).
In the olaparib-group, 228 patients (25.0%) required a dose reduction compared to 47 (5.2%) in the placebo-group. Adverse events requiring permanent discontinuation of the trial drug occurred in 90 patients (9.9%) in the olaparib-group and 38 patients (4.2%) in the placebo-group. […] (Table S15, S16 in the Supplementary Appendix). […] Any differences between the treatment arms are not considered clinically significant (Figure S5 in the Supplementary Appendix).

[3] = ITT, olaparib-group N=921, Kaplan-Meier, median follow-up 2.5 years
[4] = all deaths, ITT, olaparib N=921
[5] = percentage of the 59 deaths in the olaparib-group

O=C(c1cc(Cc2n[nH]c(=O)c3ccccc23)ccc1F)N1CCN(C(=O)C2CC2)CC1 [Olaparib, 4-[(3-{[4-(cyclopropane-carbonyl)piperazine-1-yl]carbonyl}-4-fluorophenyl)methyl]-2H-phthalazin-1-one]
Deaths without a prior IDFS event ([1]; ITT, olaparib N=921): 2 no. of patients
IDFS events ([1]; ITT, olaparib N=921): 106 no. of patients
Total number of deaths ([1]; ITT, olaparib N=921): 59 no. of patients
3-year distant-disease-free survival [1, 3]: 87.5%
3-year invasive-disease-free survival [1, 3]: 85.9%
difference in 3-year distant-disease-free survival, olaparib vs placebo ([1]; ITT, 95% CI 3.0%, 11.1%): 7.1%
difference in 3-year invasive-disease-free survival, olaparib vs placebo ([1]; ITT, 95% CI 4.5%, 13.0%): 8.8%
Invasive disease free survival Events (%) ([1]; Overall): 106 (11.5)/178 (19.5) events (%)
Primary cause of death: Adverse event [1, 4]: 1 no. of patients
Primary cause of death: Breast cancer [1, 4]: 55 no. of patients
Primary cause of death: Other [1, 4]: 3 no. of patients
Primary cause of death: Adverse event [1, 5]: 1.7%
Primary cause of death: Breast cancer [1, 5]: 93.2%
Primary cause of death: Other [1, 5]: 5.1%
Invasive disease free survival Events (%) ([1]; subgroup Age 50-64 years at randomisation): 22 (11.4)/41 (19.5) events (%)
Invasive disease free survival Events (%) ([1]; subgroup Age < 50 years at randomisation): 79 (11.3)/133 (19.8) events (%)
Invasive disease free survival Events (%) ([1]; subgroup Age ≥ 65 years at randomisation): 5 (17.2)/4 (12.5) events (%)
Invasive disease free survival Events (%) ([1]; subgroup BRCA1/2 both with no prior platinum therapy for current breast cancer): 0 (0.0)/0 (0.0) events (%)
Invasive disease free survival Events (%) ([1]; subgroup BRCA1/2 both with prior platinum therapy for current breast cancer): 0/0 (0.0) events (%)
Invasive disease free survival Events (%) ([1]; subgroup BRCA1 with no prior platinum therapy for current breast cancer): 43 (11.2)/91 (24.0) events (%)
Invasive disease free survival Events (%) ([1]; subgroup BRCA1 with prior platinum therapy for current breast cancer): 27 (15.5)/35 (19.6) events (%)
Invasive disease free survival Events (%) ([1]; subgroup BRCA2 with no prior platinum therapy for current breast cancer): 18 (10.2)/30 (17.8) events (%)
Invasive disease free survival Events (%) ([1]; subgroup BRCA2 with prior platinum therapy for current breast cancer): 4 (7.5)/8 (20.0) events (%)
Invasive disease free survival Events (%) ([1]; subgroup BRCA variant type: BRCA1): 70 (12.5)/126 (22.6) events (%)
Invasive disease free survival Events (%) ([1]; subgroup BRCA variant type: BRCA1/2): 0 (0.0)/0 (0.0) events (%)
Invasive disease free survival Events (%) ([1]; subgroup BRCA variant type: BRCA2): 22 (9.6)/38 (18.2) events (%)
Invasive disease free survival Events (%) ([1]; subgroup Bilateral oophorectomy prior to first dose): 14 (7.4)/38 (21.6) events (%)
Invasive disease free survival Events (%) ([1]; subgroup Ethnicity: Hispanic or Latino): 7 (20.6)/7 (29.2) events (%)
Invasive disease free survival Events (%) ([1]; subgroup Ethnicity: Not Hispanic or Latino): 88 (10.9)/153 (18.8) events (%)
Invasive disease free survival Events (%) ([1]; subgroup Ethnicity: Not known, not recorded or refused): 11 (13.4)/18 (22.8) events (%)
Invasive disease free survival Events (%) ([1]; subgroup Geographic region: Asia Pacific and South Africa): 30 (9.9)/55 (17.2) events (%)
Invasive disease free survival Events (%) ([1]; subgroup Geographic region: Europe): 62 (12.9)/95 (21.0) events (%)
Invasive disease free survival Events (%) ([1]; subgroup Geographic region: North America): 11 (9.0)/23 (17.4) events (%)
Invasive disease free survival Events (%) ([1]; subgroup Geographic region: South America): 3 (18.8)/5 (41.7) events (%)
Invasive disease free survival Events (%) ([1]; subgroup HR status: HR+/HER2−): 19 (11.3)/25 (15.9) events (%)
Invasive disease free survival Events (%) ([1]; subgroup HR status: TNBC): 87 (11.6)/153 (20.2) events (%)
Invasive disease free survival Events (%) ([1]; subgroup HR+/HER2− with adjuvant chemotherapy): 6 (9.4)/5 (7.7) events (%)
Invasive disease free survival Events (%) ([1]; subgroup HR+/HER2− with neoadjuvant chemotherapy): 13 (12.5)/20 (21.7) events (%)
Invasive disease free survival Events (%) ([1]; subgroup Jewish descent: No, not of Ashkenazi descent): 100 (11.4)/169 (19.3) events (%)
Invasive disease free survival Events (%) ([1]; subgroup Jewish descent: Yes, of Ashkenazi descent): 6 (14.6)/9 (25.0) events (%)
Invasive disease free survival Events (%) ([1]; subgroup No bilateral oophorectomy prior to first dose): 92 (12.6)/140 (18.9) events (%)
Invasive disease free survival Events (%) ([1]; subgroup No prior platinum/ACT): 28 (7.3)/57 (14.8) events (%)
Invasive disease free survival Events (%) ([1]; subgroup No prior platinum/HR+/HER2−): 13 (9.3)/22 (16.4) events (%)
Invasive disease free survival Events (%) ([1]; subgroup No prior platinum/NACT): 44 (15.1)/78 (26.8) events (%)
Invasive disease free survival Events (%) ([1]; subgroup No prior platinum/TNBC): 59 (11.1)/113 (20.8) events (%)
Invasive disease free survival Events (%) ([1]; subgroup Primary Study Database: Breast International Group (BIG)): 95 (11.7)/160 (19.9) events (%)
Invasive disease free survival Events (%) ([1]; subgroup Primary Study Database: NRG Oncology (US)): 11 (9.9)/18 (16.5) events (%)
Invasive disease free survival Events (%) ([1]; subgroup Prior Chemo: Adjuvant): 36 (7.8)/61 (13.4) events (%)
Invasive disease free survival Events (%) ([1]; subgroup Prior Chemo: Neoadjuvant): 70 (15.2)/117 (25.4) events (%)
Invasive disease free survival Events (%) ([1]; subgroup Prior Platinum: No): 72 (10.7)/135 (20.0) events (%)
Invasive disease free survival Events (%) ([1]; subgroup Prior Platinum: Yes): 34 (13.8)/43 (18.0) events (%)
Invasive disease free survival Events (%) ([1]; subgroup Prior platinum/ACT): 8 (10.3)/4 (5.7) events (%)
Invasive disease free survival Events (%) ([1]; subgroup Prior platinum/HR+/HER2−): 6 (21.4)/3 (13.0) events (%)
Invasive disease free survival Events (%) ([1]; subgroup Prior platinum/NACT): 26 (15.4)/39 (23.1) events (%)
Invasive disease free survival Events (%) ([1]; subgroup Prior platinum/TNBC): 28 (12.8)/40 (18.5) events (%)
Invasive disease free survival Events (%) ([1]; subgroup Race: Asian): 25 (9.7)/46 (16.9) events (%)
Invasive disease free survival Events (%) ([1]; subgroup Race: Black/African-American): 4 (21.1)/5 (17.2) events (%)
Invasive disease free survival Events (%) ([1]; subgroup Race: Other): 2 (11.8)/3 (20.0) events (%)
Invasive disease free survival Events (%) ([1]; subgroup Race: White): 75 (12.0)/124 (20.7) events (%)
Invasive disease free survival Events (%) ([1]; subgroup TNBC adjuvant cohort, pN status at surgery: Node negative): 13 (6.4)/22 (11.5) events (%)
Invasive disease free survival Events (%) ([1]; subgroup TNBC adjuvant cohort, pN status at surgery: Node positive): 15 (8.6)/31 (17.5) events (%)
Invasive disease free survival Events (%) ([1]; subgroup TNBC with adjuvant chemotherapy): 30 (7.6)/56 (14.4) events (%)
Invasive disease free survival Events (%) ([1]; subgroup TNBC with neoadjuvant chemotherapy): 57 (16.1)/97 (26.4) events (%)
Invasive disease free survival Events (%) ([1]; subgroup breast surgery prior to randomisation: Breast conservation): 20 (9.0)/46 (19.2) events (%)
Invasive disease free survival Events (%) ([1]; subgroup post neoadjuvant group: CPS + EG score of 2, 3 or 4): 55 (13.8)/96 (24.8) events (%)
Invasive disease free survival Events (%) ([1]; subgroup post neoadjuvant group: CPS + EG score of 5 or 6): 11 (50.0)/10 (66.7) events (%)
Invasive disease free survival Events (%) ([1]; subgroup prior chemotherapy: Anthracycline and taxane regimen): 101 (11.6)/168 (19.8) events (%)
Invasive disease free survival Events (%) ([1]; subgroup prior chemotherapy: Anthracycline regimen (without taxane)): 0 (0.0)/2 (15.4) events (%)
Invasive disease free survival Events (%) ([1]; subgroup prior chemotherapy: Taxane regimen (without Anthracycline)): 5 (11.6)/8 (15.4) events (%)
Number of patients with a dose reduction: 1 dose reduction (%) [2]: 170 (18.7) patients (%)
Number of patients with a dose reduction: 2 dose reductions (%) [2]: 57 (6.3) patients (%)
Number of patients with a dose reduction: 3 or more dose reductions (%) [2]: 1 (0.1) patients (%)
Patients with a dose reduction (%) [2]: 228 (25.0) patients (%)
Patients with no dose reduction (%) [2]: 683 (75.0) patients (%)
Reason for reduction: Administrative reasons (%) [2]: 2 (0.2) patients (%)
Reason for reduction: Adverse event (%) [2]: 222 (24.4) patients (%)
Reason for reduction: Dosing error (%) [2]: 6 (0.7) patients (%)
Reason for reduction: Other (%) [2]: 0 (0.0) patients (%)
Total number of dose reductions [2]: 287
